Experimental data taken from the supplement of paper PMC10307832.

Experiments:
Assay in all cases: relative viability (nuclei count vs DMSO), 5 days (fraction); higher = more cells survive
[1] = compound: C=CCn1c(=O)c2cnc(Nc3ccc(N4CCN(C)CC4)cc3)nc2n1-c1cccc(C(C)(C)O)n1 [Adavosertib] + Cc1nc(NC(=O)N2CCC[C@H]2C(N)=O)sc1-c1ccnc(C(C)(C)C(F)(F)F)c1 [Alpelisib] (partner 2 µM)
Method in brief: (§1)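 The day after seeding in 1536-well plates, lung cancer cell lines were treated by pin tool with a single drug, or with a fixed anchor-drug dose together with five library-drug doses (not always all listed) in √10 steps. After 5 days, a combined fix-and-stain solution (final 0.05% Triton X-100, 1% formaldehyde, 1 ug/ml Hoechst) was added. Nuclei counted on 4× images gave relative viability as treated counts over vehicle counts, reported as the median of duplicate plates.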

[2] = compound: COc1nc(N)nc2c1ncn2[C@@H]1O[C@H](CO)[C@@H](O)[C@@H]1O [Nelarabine] + CC(C)C[C@H](NC(=O)[C@H](Cc1ccccc1)NC(=O)c1cnccn1)B(O)O [Bortezomib] (partner 0.002 µM)
Method in brief: as §1

[3] = compound: COc1nc(N)nc2c1ncn2[C@@H]1O[C@H](CO)[C@@H](O)[C@@H]1O [Nelarabine] + C[C@]1(O)C[C@@H](c2nc(-c3ccc4ccc(-c5ccccc5)nc4c3)c3c(N)nccn32)C1 [Linsitinib] (partner 1 µM)
Method in brief: as §1

[4] = compound: C=CCn1c(=O)c2cnc(Nc3ccc(N4CCN(C)CC4)cc3)nc2n1-c1cccc(C(C)(C)O)n1 [Adavosertib] + O=C(c1cc(Cc2n[nH]c(=O)c3ccccc23)ccc1F)N1CCN(C(=O)C2CC2)CC1 [Olaparib] (partner 8 µM)
Method in brief: as §1

Cell Line: NCI-H1915
- relative viability ([1]; first compound 0.01 µM): 1.07
- relative viability ([1]; first compound 0.03162 µM): 1.07
- relative viability ([1]; first compound 0.1 µM): 1.13
- relative viability ([1]; first compound 0.3162 µM): 1.15
- relative viability ([2]; first compound 0.01 µM): 1.25
- relative viability ([2]; first compound 0.03162 µM): 0.871
- relative viability ([2]; first compound 0.1 µM): 1.04
- relative viability ([2]; first compound 0.3162 µM): 0.975
- relative viability ([2]; first compound 1 µM): 0.96
- relative viability ([3]; first compound 0.01 µM): 1.15
- relative viability ([3]; first compound 0.03162 µM): 1.08
- relative viability ([3]; first compound 0.1 µM): 1.06
- relative viability ([3]; first compound 0.3162 µM): 1.1
- relative viability ([3]; first compound 1 µM): 1.1
- relative viability ([4]; first compound 0.01 µM): 0.258
- relative viability ([4]; first compound 0.03162 µM): 0.277
- relative viability ([4]; first compound 0.1 µM): 0.264
- relative viability ([4]; first compound 0.3162 µM): 0.269

Cell Line: COR-L23
- relative viability ([1]; first compound 0.01 µM): 0.778
- relative viability ([1]; first compound 0.03162 µM): 0.687
- relative viability ([1]; first compound 0.1 µM): 0.729
- relative viability ([1]; first compound 0.3162 µM): 0.243
- relative viability ([2]; first compound 0.01 µM): 1.33
- relative viability ([2]; first compound 0.03162 µM): 1.08
- relative viability ([2]; first compound 0.1 µM): 1.08
- relative viability ([2]; first compound 0.3162 µM): 0.942
- relative viability ([2]; first compound 1 µM): 0.983
- relative viability ([3]; first compound 0.01 µM): 1.12
- relative viability ([3]; first compound 0.03162 µM): 0.996
- relative viability ([3]; first compound 0.1 µM): 1
- relative viability ([3]; first compound 0.3162 µM): 0.911
- relative viability ([3]; first compound 1 µM): 1.06
- relative viability ([4]; first compound 0.01 µM): 0.339
- relative viability ([4]; first compound 0.03162 µM): 0.34
- relative viability ([4]; first compound 0.1 µM): 0.227
- relative viability ([4]; first compound 0.3162 µM): 0.163

Cell Line: NCI-H1975
- relative viability ([1]; first compound 0.01 µM): 0.736
- relative viability ([1]; first compound 0.03162 µM): 0.63
- relative viability ([1]; first compound 0.1 µM): 0.546
- relative viability ([1]; first compound 0.3162 µM): 0.339
- relative viability ([2]; first compound 0.01 µM): 0.362
- relative viability ([2]; first compound 0.03162 µM): 0.258
- relative viability ([2]; first compound 0.1 µM): 0.429
- relative viability ([2]; first compound 0.3162 µM): 0.399
- relative viability ([2]; first compound 1 µM): 0.404
- relative viability ([3]; first compound 0.01 µM): 1.19
- relative viability ([3]; first compound 0.03162 µM): 1.03
- relative viability ([3]; first compound 0.1 µM): 1.12
- relative viability ([3]; first compound 0.3162 µM): 1.09
- relative viability ([3]; first compound 1 µM): 1.15
- relative viability ([4]; first compound 0.01 µM): 0.873
- relative viability ([4]; first compound 0.03162 µM): 0.803
- relative viability ([4]; first compound 0.1 µM): 0.737
- relative viability ([4]; first compound 0.3162 µM): 0.63

Cell Line: RERF-LC-KJ
- relative viability ([1]; first compound 0.01 µM): 0.855
- relative viability ([1]; first compound 0.03162 µM): 0.784
- relative viability ([1]; first compound 0.1 µM): 0.764
- relative viability ([1]; first compound 0.3162 µM): 0.793
- relative viability ([2]; first compound 0.01 µM): 1.03
- relative viability ([2]; first compound 0.03162 µM): 1.39
- relative viability ([2]; first compound 0.1 µM): 1.24
- relative viability ([2]; first compound 0.3162 µM): 1.29
- relative viability ([2]; first compound 1 µM): 1.33
- relative viability ([3]; first compound 0.01 µM): 0.908
- relative viability ([3]; first compound 0.03162 µM): 1.06
- relative viability ([3]; first compound 0.1 µM): 0.915
- relative viability ([3]; first compound 0.3162 µM): 0.907
- relative viability ([3]; first compound 1 µM): 0.884
- relative viability ([4]; first compound 0.01 µM): 0.952
- relative viability ([4]; first compound 0.03162 µM): 0.986
- relative viability ([4]; first compound 0.1 µM): 1.05
- relative viability ([4]; first compound 0.3162 µM): 0.955

Cell Line: NCI-H2228
- relative viability ([1]; first compound 0.01 µM): 0.839
- relative viability ([1]; first compound 0.03162 µM): 0.694
- relative viability ([1]; first compound 0.1 µM): 0.829
- relative viability ([1]; first compound 0.3162 µM): 0.343
- relative viability ([2]; first compound 0.01 µM): 1.45
- relative viability ([2]; first compound 0.03162 µM): 1.52
- relative viability ([2]; first compound 0.3162 µM): 1.35
- relative viability ([2]; first compound 1 µM): 1.03
- relative viability ([3]; first compound 0.01 µM): 0.519
- relative viability ([3]; first compound 0.03162 µM): 0.832
- relative viability ([3]; first compound 0.3162 µM): 0.63
- relative viability ([3]; first compound 1 µM): 0.898
- relative viability ([4]; first compound 0.03162 µM): 0.749
- relative viability ([4]; first compound 0.1 µM): 0.519
- relative viability ([4]; first compound 0.3162 µM): 0.27

Cell Line: HCC-15
- relative viability ([1]; first compound 0.01 µM): 0.904
- relative viability ([1]; first compound 0.03162 µM): 0.916
- relative viability ([1]; first compound 0.1 µM): 0.987
- relative viability ([1]; first compound 0.3162 µM): 1.04
- relative viability ([2]; first compound 0.01 µM): 1.33
- relative viability ([2]; first compound 0.03162 µM): 0.917
- relative viability ([2]; first compound 0.1 µM): 1.18
- relative viability ([2]; first compound 0.3162 µM): 1.11
- relative viability ([2]; first compound 1 µM): 1.14
- relative viability ([3]; first compound 0.01 µM): 1.06
- relative viability ([3]; first compound 0.03162 µM): 0.841
- relative viability ([3]; first compound 0.1 µM): 0.904
- relative viability ([3]; first compound 0.3162 µM): 0.87
- relative viability ([3]; first compound 1 µM): 1
- relative viability ([4]; first compound 0.01 µM): 0.73
- relative viability ([4]; first compound 0.03162 µM): 0.727
- relative viability ([4]; first compound 0.1 µM): 0.958
- relative viability ([4]; first compound 0.3162 µM): 0.876

Cell Line: EKVX
- relative viability ([1]; first compound 0.01 µM): 0.843
- relative viability ([1]; first compound 0.03162 µM): 0.858
- relative viability ([1]; first compound 0.1 µM): 0.833
- relative viability ([1]; first compound 0.3162 µM): 0.911
- relative viability ([2]; first compound 0.01 µM): 1.35
- relative viability ([2]; first compound 0.03162 µM): 0.853
- relative viability ([2]; first compound 0.1 µM): 1.05
- relative viability ([2]; first compound 0.3162 µM): 1.25
- relative viability ([2]; first compound 1 µM): 1.14
- relative viability ([3]; first compound 0.01 µM): 1.08
- relative viability ([3]; first compound 0.03162 µM): 0.849
- relative viability ([3]; first compound 0.1 µM): 0.851
- relative viability ([3]; first compound 0.3162 µM): 1.19
- relative viability ([3]; first compound 1 µM): 0.941
- relative viability ([4]; first compound 0.01 µM): 0.756
- relative viability ([4]; first compound 0.03162 µM): 0.841
- relative viability ([4]; first compound 0.1 µM): 0.783
- relative viability ([4]; first compound 0.3162 µM): 0.833

Cell Line: NCI-H2347
- relative viability ([1]; first compound 0.01 µM): 1.06
- relative viability ([1]; first compound 0.03162 µM): 1.02
- relative viability ([1]; first compound 0.1 µM): 1.04
- relative viability ([1]; first compound 0.3162 µM): 0.975
- relative viability ([2]; first compound 0.01 µM): 1.27
- relative viability ([2]; first compound 0.1 µM): 0.862
- relative viability ([2]; first compound 0.3162 µM): 0.985
- relative viability ([2]; first compound 1 µM): 1.3
- relative viability ([3]; first compound 0.01 µM): 1.08
- relative viability ([3]; first compound 0.03162 µM): 1.02
- relative viability ([3]; first compound 0.1 µM): 0.968
- relative viability ([3]; first compound 0.3162 µM): 0.939
- relative viability ([3]; first compound 1 µM): 1.04
- relative viability ([4]; first compound 0.01 µM): 0.584
- relative viability ([4]; first compound 0.03162 µM): 0.595
- relative viability ([4]; first compound 0.1 µM): 0.548
- relative viability ([4]; first compound 0.3162 µM): 0.54

Cell Line: NCI-H1792
- relative viability ([1]; first compound 0.01 µM): 0.67
- relative viability ([1]; first compound 0.03162 µM): 0.649
- relative viability ([1]; first compound 0.1 µM): 0.697
- relative viability ([1]; first compound 0.3162 µM): 0.48
- relative viability ([2]; first compound 0.01 µM): 1.28
- relative viability ([2]; first compound 0.1 µM): 1.05
- relative viability ([2]; first compound 0.3162 µM): 1.17
- relative viability ([2]; first compound 1 µM): 0.85
- relative viability ([3]; first compound 0.01 µM): 0.621
- relative viability ([3]; first compound 0.1 µM): 0.548
- relative viability ([3]; first compound 0.3162 µM): 0.702
- relative viability ([3]; first compound 1 µM): 0.716
- relative viability ([4]; first compound 0.01 µM): 0.464
- relative viability ([4]; first compound 0.03162 µM): 0.461
- relative viability ([4]; first compound 0.1 µM): 0.378
- relative viability ([4]; first compound 0.3162 µM): 0.459
